According to patent EP0271099A2, “Substituted aminopropionic acid amides, process for their preparation, agents containing them and their use as well as the intermediates formed during the preparation” (HOECHST AKTIENGESELLSCHAFT, priority 1986, dated 1988):

tested on: ECS-Amnesie; experiment: Inhibitory (passive) avoidance test, reversal of amnesia induced by electroconvulsive shock; type: in vivo, Mäusen; conditions: Mus musculus, po, read-out: Inhibitory avoidance MED mg/kg p.o. ECS-Amnesie
From the text: Die Verbindungen der Formel I besitzen wertvolle pharmakologische Eigenschaften, insbesondere nootrope. Die nootrope Wirkung der erfindungsgemäßen Verbindungen wurde an Mäusen, die ein Köpergewicht von 20-25 g besaßen, im inhibitory (passive) avoidance test geprüft. Eine modifizierte Form der von J. Kopp, Z. Bodanecky und M.E. Jarvik beschriebenen Testmethode wurde von J. Bures, O. Buresova und J. Huston im "Techniques and Basic Experiments for the Study of Brain and Behavior", Elsevier Scientific Publishers, Amsterdam 1983, beschrieben.
Entsprechend diesen Literaturangaben wird eine Substanz dann als nootrop wirksam bezeichnet, wenn sie bei den Versuchstieren die mittels eines elektroconvulsiven Schocks erzeugte Amnesie (ECS-Amnesie) aufzuheben vermag.
Die Versuche wurden nach modifizierten Testmethoden mit den erfindungsgemäßen Verbindungen durchgeführt. Als Vergleichsverbindung diente das bekannte Nootropikum 2-Oxo-1-pyrrolidinylessigsäureamid (Piracetam). Die deutliche Überlegenheit der erfindungsgemäßen Verbindungen über die Vergleichssubstanz zeigte sich darin, daß der amnestische Effekt bereits mit einer MED (minimal effective dosis) von 0,1-10 mg/kg p.o. aufzuheben ist. Die Vergleichssubstanz hat eine MED von ca. 500-1000 mg/kg p.o..

Structure (SMILES)	minimal effective dose [mg/kg]
O=C(O)CCc1ccc(NC(=O)CCN2CC=C(c3cccc(Cl)c3)CC2)cc1 [Beispiel 49, 3-{4-[3-(4-(3-Chlorphenyl)-1,2,5,6-tetrahydropyridino)-propionamido]-phenyl}-propionsäure]	25
NC(=O)CN1CCCC1=O [Piracetam, 2-Oxo-1-pyrrolidinylessigsäureamid, reference compound]	1000

same assay, conditions: Mus musculus, po, read-out: MED (minimal effective dosis)

Structure (SMILES)	minimal effective dose [mg/kg]
NC(=O)CN1CCCC1=O [Piracetam, 2-Oxo-1-pyrrolidinylessigsäureamid, reference compound]	500 to 1000

same assay, conditions: Mus musculus; mice 20-25 g, oral; MED = minimal effective dosis reversing ECS-Amnesie; Table 1; read-out: Inhibitory avoidance MED mg/kg p.o. ECS-Amnesie

Structure (SMILES)	minimal effective dose [mg/kg]
O=C(O)CCc1ccc(NC(=O)CCN2CCN(c3cccc(Cl)c3)CC2)cc1 [Beispiel 34, 3-{4-(3-(4-(3-Chlorphenyl)-piperazino)-propionamido]-phenyl}-propionsäure]	1.6
O=C(O)C=Cc1ccc(NC(=O)CCN2CCN(c3cccc(Cl)c3)CC2)cc1 [Beispiel 35, 4-{3-[4-(3-Chlorphenyl)-piperazino]-propionamido}-zimtsäure]	50
O=C(O)CCCc1ccc(NC(=O)CCN2CCC(c3ccccc3)CC2)cc1 [Beispiel 45, 4-{4-[3-(4-Phenylpiperidino)-propionamido]-phenyl}-buttersäure]	25
O=C(O)CCc1ccc(NC(=O)CCN2CCN(c3ccccc3)CC2)cc1 [Beispiel 46, 3-{4-[3-(4-Phenylpiperazino)-propionamido]-phenyl}-propionsäure]	25
O=C(O)CCc1ccc(NC(=O)CCN2CCN(CCCc3ccccc3)CC2)cc1 [Beispiel 47, 3-{4-[3-(4-(3-Phenylpropyl)-piperazino)-propionamido]-phenyl}-propionsäure]	25
O=C(O)CCc1ccc(NC(=O)CCNCCCc2ccccc2)cc1 [Beispiel 48, 3-{4-[3-(3-Phenylpropylamino)-propionamido]-phenyl}-propionsäure]	50
